According to PMC10564737, “Structure-based design of a phosphotyrosine-masked covalent ligand targeting the E3 ligase SOCS2” (Nature Communications, 2023):
pKi: −log10 of the molar value. Values joined by “and” are separate entries in the source; they are usually repeats but may differ in a detail not shown here. Equal entries are not always repeated. Where two headings read alike, the source gives them in different places.

Biological target: T1, SBC2 (Homo sapiens, UniProt O14508)
T1 construct: SOCS2 (amino acids 32–198); His6 (N, cleaved yes); made in house; host or cells: E. coli BL21(DE3)
T1 sequence (O14508 32-198): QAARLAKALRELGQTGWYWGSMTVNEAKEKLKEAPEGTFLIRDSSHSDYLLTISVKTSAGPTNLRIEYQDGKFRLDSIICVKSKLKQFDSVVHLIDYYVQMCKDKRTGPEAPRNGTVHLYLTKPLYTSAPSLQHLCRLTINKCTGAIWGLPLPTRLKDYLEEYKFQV
T1 sequence (Q15370 1-104 partner limits assumed): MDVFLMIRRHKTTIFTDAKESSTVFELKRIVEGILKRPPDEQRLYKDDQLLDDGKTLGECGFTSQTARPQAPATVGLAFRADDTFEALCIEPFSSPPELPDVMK
T1 sequence (Q15369 17-112 partner limits assumed): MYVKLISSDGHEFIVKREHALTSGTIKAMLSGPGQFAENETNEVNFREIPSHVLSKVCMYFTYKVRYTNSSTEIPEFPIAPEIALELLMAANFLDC
Assay: Covalent fluorescence polarization (FP) probe displacement assay
Format: binding
Design: Michaelis-Menten best-fit value Vmax / Michaelis-Menten best-fit Vmax: unit not given here
Conditions: for Anisotropy: Cycle 12 (55 min)
From the text: With the specific covalent modification of Cys111 established, we decided to fully characterize MN551 as a covalent SOCS2 inhibitor. […] (Fig. 2g, h, Supplementary Fig. 9). Due to the covalent nature of the competing inhibitor, a time-dependent reduction in the fraction of protein-bound probe is observed. […] This value illustrates reasonable specificity for a covalent inhibitor, with nonetheless scope for future optimization. In addition to characterizing the kinetic covalency parameters, we have also assessed the stability of the MN551 by monitoring its reactivity (half-life >70 min) with reduced glutathione (GSH) (Supplementary Fig. 10)[35].
To monitor the SBC2-ligand binding kinetics we designed a fluorescein-labeled small-molecule probe - compound 26. The fluorescence polarization (anisotropy) of a threefold serial dilution of 50 µM SBC2 in 10 nM of the probe in 100 mM HEPES pH 7.5, 50 mM NaCl, 0.5 mM TCEP, 2% DMSO was measured to determine the KL (Supplementary Fig. 9A) (BMG Labtech PHERAstar – firmware v1.33). Protein titration and the curves were fitted using GraphPad Prism 9, using one-site fitting models to determine the probe binding constant, KL. Samples were run in triplicate in 384 well plates, using a total volume per well of 16 μL. The bound fraction of the probe is measure using the equation:1 Fb=Af−A/Af−Ab Where,
A time-dependent reduction in probe anisotropy were measured for a 2-fold serial dilution of […] compound MN551 in 10 nM probe +300 μM SBC2. To determine the initial reversible binding affinity, the initial bound fraction of the probe at time = 0, Fbo (the y-intercept in Fb v/s Time plot, Supplementary Fig. 9B) was plotted against MN551 concentration, and the obtained IC50 is then converted to Ki (Supplementary Fig. 9C)[17]. The slope from Fb versus time graph when divided by Fbo gives rate of covalency, kobs. A plot of kobs v/s MN551 concentration using Michaelis–Menten model of GraphPad Prism 9, provides the parameters kinact (maximum potential rate of inactivation) and KI (concentration of MN551 at which kobs = kinact/2) (Supplementary Fig. 9D, E).
The observed first-order rate constant, kobs is related to KI and kinact by the equation:2 kobs=kinactI/KI+I
At [I]«[KI] the above equation is converted to3 […]
The slope from the plot of kobs against concentration of MN551 gives us the covalent efficiency parameter kinact/KI (Supp Fig. 9F)[30],[33].

[1] = MN551 1562.5 nM, Cycle 6 (25 min)
[2] = MN551 3125 nM, Cycle 6 (25 min)
[3] = MN551 6250 nM, Cycle 6 (25 min)
[4] = MN551 12500 nM, Cycle 6 (25 min)
[5] = MN551 25000 nM, Cycle 6 (25 min)
[6] = MN551 50000 nM, Cycle 6 (25 min)
[7] = linear fit through origin, 14 X values

## O=C(CCl)Nc1cccc(CNC(=O)[C@H](Cc2ccc(OP(=O)(O)O)cc2)NC(=O)Cc2ccc(F)cc2)c1 [MN551]
MN551 1562.5 nM, Cycle 7 (30 min)
  Anisotropy based on Raw Data (485): 249.9 and 251.8 and 246.3
MN551 1562.5 nM, Cycle 2 (5 min)
  Fb, fraction bound: 0.7824 and 0.8178 and 0.7856
MN551 1562.5 nM, Cycle 3 (10 min)
  Fb, fraction bound: 0.7647 and 0.786 and 0.7702
[1]
  Anisotropy data 485,520,520: 247 and 253 and 251
  Fb: 0.6849 and 0.7296 and 0.7125
MN551 1562.5 nM
  Anisotropy: 232.7 and 235.9 and 233.9
MN551 3125 nM, Cycle 7 (30 min)
  Anisotropy based on Raw Data (485): 236.7 and 234.8 and 231.2
MN551 3125 nM, Cycle 3 (10 min)
  Fb, fraction bound: 0.6544 and 0.6694 and 0.6412
[2]
  Anisotropy data 485,520,520: 232.2 and 235.2 and 237.3
  Fb: 0.5431 and 0.5648 and 0.5878
MN551 3125 nM
  Anisotropy: 219.6 and 215.4 and 213.4
MN551 6250 nM, Cycle 7 (30 min)
  Anisotropy based on Raw Data (485): 210.9 and 211.2 and 208.6
MN551 6250 nM, Cycle 3 (10 min)
  Fb, fraction bound: 0.4366 and 0.4454 and 0.4414
[3]
  Anisotropy data 485,520,520: 214.2 and 214.4 and 216.1
  Fb: 0.3707 and 0.3722 and 0.3949
MN551 6250 nM
  Anisotropy: 197.5 and 192.2 and 194.7
MN551 6250 nM, Cycle 19 (90 min), n=1
  Anisotropy data 485,520,520: 182.4 and 180.6 and 182.5
MN551 12500 nM, Cycle 7 (30 min)
  Anisotropy based on Raw Data (485): 198.9 and 196.3 and 194.4
MN551 12500 nM, Cycle 3 (10 min)
  Fb, fraction bound: 0.2711 and 0.337 and 0.3633
[4]
  Anisotropy data 485,520,520: 197.3 and 198 and 197.2
  Fb: 0.2088 and 0.2204 and 0.2229
MN551 12500 nM
  Anisotropy: 181.6 and 186.4 and 190.6
MN551 12500 nM, Cycle 19 (90 min), n=1
  Anisotropy data 485,520,520: 175.8 and 177.4 and 179.3
MN551 25000 nM, Cycle 7 (30 min)
  Anisotropy based on Raw Data (485): 184.9 and 182.9 and 181.5
MN551 25000 nM, Cycle 8 (35 min)
  Anisotropy based on Raw Data (485): 180.7 and 181.6
MN551 25000 nM, Cycle 3 (10 min)
  Fb, fraction bound: 0.1627 and 0.184 and 0.1553
[5]
  Anisotropy data 485,520,520: 189.8 and 187 and 188.6
  Fb: 0.137 and 0.1185 and 0.1447
MN551 25000 nM
  Anisotropy: 177.2 and 177.1 and 175
MN551 25000 nM, Cycle 19 (90 min), n=1
  Anisotropy data 485,520,520: 168.3 and 171.4 and 169.1
MN551 50000 nM, Cycle 7 (30 min)
  Anisotropy based on Raw Data (485): 181.6 and 178.4 and 180.2
MN551 50000 nM, Cycle 8 (35 min)
  Anisotropy based on Raw Data (485): 179.2 and 176.8 and 178.5
MN551 50000 nM, Cycle 3 (10 min)
  Fb, fraction bound: 0.08456 and 0.09836 and 0.08356
[6]
  Anisotropy data 485,520,520: 185.8 and 181.1 and 183.7
  Fb: 0.09866 and 0.06389 and 0.1001
MN551 50000 nM
  Anisotropy: 173.6 and 173.5 and 174.7
MN551 50000 nM, Cycle 19 (90 min), n=1
  Anisotropy data 485,520,520: 167.6 and 168.6 and 168.7
MN551 100000 nM, Cycle 7 (30 min)
  Anisotropy based on Raw Data (485): 179.4 and 180.3 and 179.5
MN551 100000 nM, Cycle 8 (35 min)
  Anisotropy based on Raw Data (485): 176.4 and 175.9
MN551 100000 nM, Cycle 3 (10 min)
  Fb, fraction bound: 0.06066 and 0.07013 and 0.06449
MN551 100000 nM, Cycle 6 (25 min)
  Anisotropy data 485,520,520: 179.9 and 183.4
MN551 100000 nM
  Anisotropy: 176.4 and 173.8 and 174.3
MN551 100000 nM, Cycle 19 (90 min), n=1
  Anisotropy data 485,520,520: 171.6 and 169.1
Mean, n = 3, time = 0, read-out: Ki
  pKi: 5.95
Calculated from IC50 at time = 0, read-out: Ki at time = 0 (initial reversible binding affinity)
  pKi: 5.96
Experiment n=1, 95% CI 0.01343 to 0.01564
  Michaelis-Menten best-fit value Vmax: 0.0145
Experiment n=1, Y = 3.349e-006*X + 0.000, 95% CI 3.026e-006 to 3.671e-006
  Linear fit best-fit value Slope: 3.349e-6
[7]
  Slope of linear regression (Equation Y = slope*X + 0.000), covalent efficiency: Y = 3.866e-006*X + 0.000
  Slope, 95% Confidence Intervals: 3.764e-006 to 3.969e-006
Mean ± SEM, n = 3
  kinact (maximum potential rate of inactivation): 2.1 × 10^–4 s^-1
Mean ± SEM, n = 3, read-out: kinact (maximum potential rate of inactivation)
  kinact: 0.0125 min⁻¹
mean, n = 3
  kinact/KI (covalent efficiency): 57.53 M⁻¹ s⁻¹
mean, n = 3, read-out: Ki
  Ki: 3560.67 nM
mean, n = 3, read-out: Kinact (converted)
  kinact: 0.0153 min⁻¹
mean, n = 3, read-out: kinact/KI (covalent efficiency)
  kinact/KI: 3480 M⁻¹ min⁻¹
n=2 experiment
  Michaelis-Menten Vmax, 95% CI (profile likelihood): 0.01305 to 0.01515
n=2 experiment, R squared 0.9902
  Michaelis-Menten best-fit value Vmax: 0.01406
n=2 experiment, from Michaelis-Menten fit (Vmax), read-out: Kinact (min-1) (converted)
  kinact: 0.0141 min⁻¹
n=2 experiment, from Michaelis-Menten fit (Vmax), read-out: Kinact (s-1)
  kinact: 0.014 min⁻¹
read-out: Slope: Kinact/Ki (M-1min-1), FP competition assay to evaluate MN551 covalent efficiency, replicate n=3, Michaelis-Menten fit
  kinact/KI: 3690 M⁻¹ min⁻¹
Replicate n=3, 95% CI 0.01570 to 0.01942
  Michaelis-Menten best-fit Vmax: 0.01742
Replicate n=3, Y-intercept 0
  Linear fit 1/slope: 258642
Replicate n=3, Y-intercept 0, MN551 below Ki titration
  Linear fit best-fit Slope: 3.866e-6
Single replicates
  Kinact, individual replicates n1-n3: 0.014 min⁻¹
  Kinact/KI, individual replicates n1-n3: 52.40 M⁻¹ s⁻¹
Single replicates, read-out: Kinact, individual replicates n1-n3 (converted)
  kinact: 0.0174 min⁻¹
Single replicates, read-out: Kinact/KI, individual replicates n1-n3
  kinact/KI: 3860 M⁻¹ min⁻¹
